Earlier results on 1 substance are cited in patent publication US8067367B2, “Methods of increasing platelet and hematopoietic stem cell production” (Janssen Pharmaceutica, N.V., priority 2002, dated 2011).

For series [1], the system named is HSCs in adult bone marrow. Particulars: exogenously added TPO; after bone marrow transplantation.
The test system of the next series is CD34+ cells. Particulars: normal volunteers.
The subject of a further series is CD34+ stem cells. The conditions noted are these: rhTPO with G-CSF; pilot study.
Where [2] appears, read: single dose of TPO, cancer patients.

On to Thrombopoietin [TPO], for which the “HSC expansion defect in tpo−/− mice” value in series [1] was “rescued this defect”. The “CD34+ cells in the peripheral blood” value in the series on CD34+ cells is 16×10^3 cells/ml. Besides, the “increase in circulating CD34+ cells” value in the series on circulating CD34+ cells (3-7 days after a single dose of TPO, cancer patients with otherwise normal hematopoiesis) is given as 6 fold. In the series on circulating CD34+ cells (setting [2]), the “increase of committed megakaryocytic subfraction (CD34+CD41+CD14−)” value is listed as ~15 fold and the “increase of stem cell enriched subfraction (CD34+ Thy+Lin−)” value was ~9 fold. Also, in the series on CD34+ stem cells, the “mobilization and apheresis yields of CD34+ stem cells in response to G-CSF” value was “able to enhance the mobilization and apheresis yields of CD34+ stem cells”.
